Laboratory results as given in PMC8319832, “Fine-Tuning of Alkaline Residues on the Hydrophilic Face Provides a Non-toxic Cationic α-Helical Antimicrobial Peptide Against Antibiotic-Resistant ESKAPE Pathogens” (Frontiers in Microbiology, 2021).
≈ marks a conversion by molar mass, not a printed value. Where a SMILES comes first, the peptide text is derived from it.

Tests used:
[1] = test system: S. aureus ATCC29213; assay: MIC, broth dilution; format: cell-based, Staphylococcus aureus; conditions: CLSI broth dilution, MHB, 6.25 × 10^5 cfu per ml, 37°C, 20 h, OD630, at least three repeats
Experimental: (§1) All experiments were repeated at least three times.
(§2) To study the influence of physiological ions on the antimicrobial activities of the peptides, The MICs of the peptides were also determined against the standard bacterial strains cultured in MHB containing various salts at their physiological concentrations (150 mM NaCl, 4.5 mM KCl, 1 mM MgCl2, 2 mM CaCl2, 6 μM NH4HCO3, and 4 μM FeCl3) ([Ma et al., 2016]).

[2] = test system: E. coli ATCC25922; assay: MIC, broth dilution; format: cell-based, Escherichia coli; conditions: CLSI broth dilution, MHB, 6.25 × 10^5 cfu per ml, 37°C, 20 h, OD630, at least three repeats
[3] = test system: S. aureus 1176; assay: MIC, broth dilution; format: cell-based, Staphylococcus aureus; conditions: CLSI broth dilution, MHB, 37°C, 20 h, OD630, at least three repeats; clinical isolate
Source text: as §1

[4] = test system: S. aureus 4188; assay: MIC, broth dilution; format: cell-based, Staphylococcus aureus; conditions: CLSI broth dilution, MHB, 37°C, 20 h, OD630, at least three repeats; clinical isolate, penicillin-resistant
Source text: as §1

[5] = test system: S. aureus 9124; assay: MIC, broth dilution; format: cell-based, Staphylococcus aureus; conditions: CLSI broth dilution, MHB, 37°C, 20 h, OD630, at least three repeats; clinical isolate, MRSA
Source text: as §1

[6] = test system: S. aureus ATCC 25923; assay: MIC, broth dilution; format: cell-based, Staphylococcus aureus; conditions: CLSI broth dilution, MHB, 37°C, 20 h, OD630, at least three repeats; standard strain
Source text: as §1

[7] = test system: E. faecalis 901; assay: MIC, broth dilution; format: cell-based; conditions: CLSI broth dilution, MHB, 37°C, 20 h, OD630, at least three repeats; clinical isolate
Source text: as §1

[8] = test system: S. epidermidis 6943; assay: MIC, broth dilution; format: cell-based; conditions: CLSI broth dilution, MHB, 37°C, 20 h, OD630, at least three repeats; clinical isolate, MRSE
Source text: as §1

[9] = test system: S. epidermidis 888; assay: MIC, broth dilution; format: cell-based; conditions: CLSI broth dilution, MHB, 37°C, 20 h, OD630, at least three repeats; clinical isolate
Source text: as §1

[10] = test system: S. epidermidis 9092; assay: MIC, broth dilution; format: cell-based; conditions: CLSI broth dilution, MHB, 37°C, 20 h, OD630, at least three repeats; clinical isolate, MRSE
Source text: as §1

[11] = test system: E. faecalis ATCC 29212; assay: MIC, broth dilution; format: cell-based; conditions: CLSI broth dilution, MHB, 37°C, 20 h, OD630, at least three repeats; standard strain
Experimental: as §1, §2

[12] = test system: E. faecium 898; assay: MIC, broth dilution; format: cell-based, Enterococcus faecium; conditions: CLSI broth dilution, MHB, 37°C, 20 h, OD630, at least three repeats; clinical isolate
Source text: as §1

[13] = test system: E. coli 2678; assay: MIC, broth dilution; format: cell-based, Escherichia coli; conditions: CLSI broth dilution, MHB, 37°C, 20 h, OD630, at least three repeats; clinical isolate, ESBL
Source text: as §1

[14] = test system: E. coli 2687; assay: MIC, broth dilution; format: cell-based, Escherichia coli; conditions: CLSI broth dilution, MHB, 37°C, 20 h, OD630, at least three repeats; clinical isolate, ESBL
Source text: as §1

[15] = test system: E. coli ATCC35218; assay: MIC, broth dilution; format: cell-based, Escherichia coli; conditions: CLSI broth dilution, MHB, 37°C, 20 h, OD630, at least three repeats; standard strain
Source text: as §1

[16] = test system: P. aeruginosa ATCC 27853; assay: MIC, broth dilution; format: cell-based, Pseudomonas aeruginosa; conditions: CLSI broth dilution, MHB, 37°C, 20 h, OD630, at least three repeats; standard strain
Experimental: as §1, §2

[17] = test system: P. aeruginosa 9014; assay: MIC, broth dilution; format: cell-based, Pseudomonas aeruginosa; conditions: CLSI broth dilution, MHB, 37°C, 20 h, OD630, at least three repeats; clinical isolate, CRE, MDR
Source text: as §1

[18] = test system: P. aeruginosa 9042; assay: MIC, broth dilution; format: cell-based, Pseudomonas aeruginosa; conditions: CLSI broth dilution, MHB, 37°C, 20 h, OD630, at least three repeats; clinical isolate
Source text: as §1

[19] = test system: A. baumannii ATCC 19606; assay: MIC, broth dilution; format: cell-based, Acinetobacter baumannii; conditions: CLSI broth dilution, MHB, 37°C, 20 h, OD630, at least three repeats; standard strain
Experimental: as §1, §2

[20] = test system: A. baumannii 13012; assay: MIC, broth dilution; format: cell-based, Acinetobacter baumannii; conditions: CLSI broth dilution, MHB, 37°C, 20 h, OD630, at least three repeats; clinical isolate, CRE, MDR
Source text: as §1

[21] = test system: A. baumannii 13079; assay: MIC, broth dilution; format: cell-based, Acinetobacter baumannii; conditions: CLSI broth dilution, MHB, 37°C, 20 h, OD630, at least three repeats; clinical isolate, CRE, MDR
Source text: as §1

[22] = test system: A. baumannii 9068; assay: MIC, broth dilution; format: cell-based, Acinetobacter baumannii; conditions: CLSI broth dilution, MHB, 37°C, 20 h, OD630, at least three repeats; clinical isolate, CRE, MDR
Source text: as §1

[23] = test system: A. baumannii 906; assay: MIC, broth dilution; format: cell-based, Acinetobacter baumannii; conditions: CLSI broth dilution, MHB, 37°C, 20 h, OD630, at least three repeats; clinical isolate, CRE, MDR
Source text: as §1

[24] = test system: K. pneumoniae ATCC 700603; assay: MIC, broth dilution; format: cell-based, Klebsiella pneumoniae; conditions: CLSI broth dilution, MHB, 37°C, 20 h, OD630, at least three repeats; standard strain
Experimental: as §1, §2

[25] = test system: K. pneumoniae 9126; assay: MIC, broth dilution; format: cell-based, Klebsiella pneumoniae; conditions: CLSI broth dilution, MHB, 37°C, 20 h, OD630, at least three repeats; clinical isolate, CRE
Source text: as §1

[26] = test system: human red blood cells (hRBCs); assay: Hemolytic activity determination; format: cell-based; conditions: hRBCs in 0.9% sodium chloride, 37°C, 1 h, OD540, 1% Triton X-100 = 100%, three independent experiments
Experimental: Fresh human red blood cells (hRBCs) were collected in a sterile borosilicate glass tube covered with sodium citrate as the anticoagulating agent. […] Two-fold dilutions of the peptides were prepared in 0.9% sodium chloride to 100 μl and mixed with equal volumn of hRBC suspension to final peptide concentrations ranging from 12.5 to 200 μg ml^–1. After co-incubation at 37°C for 1 h, the samples were centrifuged (2,000 × g, 4°C, 20 min), and the supernatant (100 μl) was taken for optical density (OD540) measurements (Asample). The hRBCs assayed with 0.9% sodium chloride (Ablank) or 1% Triton X-100 (Apositive) were applied as 0% and 100% hemolysis, respectively. Three independent experiments were performed and the percent hemolysis was calculated according to the following equation ([Yin et al., 2012]; [Li et al., 2016]):
Hemolysis(%)=100*(Asample-Ablank)/(Apositive-Ablank)

[27] = test system: ESBL-producing E. coli, CRE- and MDR P. aeruginosa, CRE- and MDR A. baumannii; assay: MIC, summary over resistant gram-negative strains; format: cell-based; conditions: summary of Table 4
Source text: as §1

[28] = test system: A. baumannii; conditions: summary of Table 4
Experimental: The MIC determination was performed using the broth dilution method according to the guidelines of the Clinical and Laboratory Standards Institute (CLSI) ([Cao et al., 2012]; [Mourtada et al., 2019]). Briefly, the bacterial cells were incubated in Mueller-Hinton broth (MHB, Oxoid) at 37°C and 150 rpm, after overnight incubation, the bacteria were transferred to new broth until the exponential phase of growth (OD630 = 0.4). After that, the bacteria were diluted with fresh MHB to 160 μl and prepared in a sterile 96-well polypropylene plate to achieve a final concentration of 6.25 × 10^5 colony forming units (cfu) per ml. Two-fold dilutions of the peptides in 0.9% sodium chloride (40 μl) were added to each well to achieve the final peptide concentrations ranging from 1.25 to 80 μg ml^–1. […] All experiments were repeated at least three times.

| Compound | MIC [1] | MIC [2] | MIC [3] | MIC [4] | MIC [5] | MIC [6] | MIC [7] | MIC [8] | MIC [9] | MIC [10] | MIC [11] | MIC [12] | MIC [13] | MIC [14] | MIC [15] | MIC [16] | MIC [17] | MIC [18] | MIC [19] | MIC [20] | further results |
| --- | --- | --- | --- | --- | --- | --- | --- | --- | --- | --- | --- | --- | --- | --- | --- | --- | --- | --- | --- | --- | --- |
| CC[C@H](C)[C@H](NC(=O)[C@H](CCCNC(=N)N)NC(=O)[C@H](CCCNC(=N)N)NC(=O)[C@@H](NC(=O)[C@@H](N)Cc1ccccc1)[C@@H](C)CC)C(=O)N[C@@H](C)C(=O)N[C@@H](CCCNC(=N)N)C(=O)N[C@@H](CC(C)C)C(=O)N[C@@H](CC(C)C)C(=O)N[C@@H](CCCNC(=N)N)C(=O)N[C@@H](CCCNC(=N)N)C(=O)N[C@H](C(=O)N[C@@H](Cc1ccccc1)C(N)=O)[C@@H](C)CC [BmKn2-7R] (H-FIRRIARLLRRIF-NH2) | 5 µg/mL (≈ 2.89 µM) | 10 µg/mL (≈ 5.78 µM) | 5 µg/mL (≈ 2.89 µM) | 5 µg/mL (≈ 2.89 µM) | 5 µg/mL (≈ 2.89 µM) | 5 µg/mL (≈ 2.89 µM) | 5 µg/mL (≈ 2.89 µM) | 5 µg/mL (≈ 2.89 µM) | 2.5 µg/mL (≈ 1.45 µM) | 5 µg/mL (≈ 2.89 µM) | 10 µg/mL (≈ 5.78 µM) | 2.5 µg/mL (≈ 1.45 µM) | 10 µg/mL (≈ 5.78 µM) | 10 µg/mL (≈ 5.78 µM) | 10 µg/mL (≈ 5.78 µM) | 5 µg/mL (≈ 2.89 µM) | 2.5 µg/mL (≈ 1.45 µM) | 5 µg/mL (≈ 2.89 µM) | 2.5 µg/mL (≈ 1.45 µM) | 2.5 µg/mL (≈ 1.45 µM) | MIC [21]: 2.5 µg/mL (≈ 1.45 µM); MIC [22]: 5 µg/mL (≈ 2.89 µM); MIC [23]: 2.5 µg/mL (≈ 1.45 µM); MIC [24]: 5 µg/mL (≈ 2.89 µM); MIC [25]: 5 µg/mL (≈ 2.89 µM); percent hRBC hemolysis ([26]; peptide 100 μg ml^–1): 73.1%; MIC against ESBL E. coli, CRE/MDR P. aeruginosa, CRE/MDR A. baumannii [27]: 2.5–10 μg ml^–1 |
| CC[C@H](C)[C@H](NC(=O)[C@H](CCCNC(=N)N)NC(=O)[C@H](CCCCN)NC(=O)[C@@H](NC(=O)[C@@H](N)Cc1ccccc1)[C@@H](C)CC)C(=O)N[C@@H](C)C(=O)N[C@@H](CCCNC(=N)N)C(=O)N[C@@H](CC(C)C)C(=O)N[C@@H](CC(C)C)C(=O)N[C@@H](CCCNC(=N)N)C(=O)N[C@@H](CCCCN)C(=O)N[C@H](C(=O)N[C@@H](Cc1ccccc1)C(N)=O)[C@@H](C)CC [BmKn2-7] (H-FIKRIARLLRKIF-NH2) | 5 µg/mL (≈ 2.99 µM) | 10 µg/mL (≈ 5.98 µM) | 5 µg/mL (≈ 2.99 µM) | 5 µg/mL (≈ 2.99 µM) | 5 µg/mL (≈ 2.99 µM) | 5 µg/mL (≈ 2.99 µM) | 5 µg/mL (≈ 2.99 µM) | 5 µg/mL (≈ 2.99 µM) | 5 µg/mL (≈ 2.99 µM) | 5 µg/mL (≈ 2.99 µM) | 5 µg/mL (≈ 2.99 µM) | 5 µg/mL (≈ 2.99 µM) | 20 µg/mL (≈ 12 µM) | 10 µg/mL (≈ 5.98 µM) | 10 µg/mL (≈ 5.98 µM) | 10 µg/mL (≈ 5.98 µM) | 10 µg/mL (≈ 5.98 µM) | 20 µg/mL (≈ 12 µM) | 5 µg/mL (≈ 2.99 µM) | 5 µg/mL (≈ 2.99 µM) | MIC [21]: 2.5 µg/mL (≈ 1.49 µM); MIC [22]: 5 µg/mL (≈ 2.99 µM); MIC [23]: 5 µg/mL (≈ 2.99 µM); MIC [24]: 10 µg/mL (≈ 5.98 µM); MIC [25]: 10 µg/mL (≈ 5.98 µM); percent hRBC hemolysis ([26]; peptide 25 μg ml^–1): 6.9%; percent hRBC hemolysis ([26]; peptide 100 μg ml^–1): 41.0% |
| CC[C@H](C)[C@H](NC(=O)[C@H](C)NC(=O)CNC(=O)[C@@H](NC(=O)[C@@H](N)Cc1ccccc1)[C@@H](C)CC)C(=O)N[C@@H](C)C(=O)N[C@@H](CCCNC(=N)N)C(=O)N[C@@H](CC(C)C)C(=O)N[C@@H](CC(C)C)C(=O)N[C@@H](CO)C(=O)N[C@@H](CCCCN)C(=O)N[C@H](C(=O)N[C@@H](Cc1ccccc1)C(N)=O)[C@@H](C)CC [BmKn2] (H-FIGAIARLLSKIF-NH2) | 10 µg/mL (≈ 6.91 µM) | > 80 µg/mL | 2.5 µg/mL (≈ 1.73 µM) | 5 µg/mL (≈ 3.45 µM) | 2.5 µg/mL (≈ 1.73 µM) | 5 µg/mL (≈ 3.45 µM) | 10 µg/mL (≈ 6.91 µM) | 5 µg/mL (≈ 3.45 µM) | 5 µg/mL (≈ 3.45 µM) | 5 µg/mL (≈ 3.45 µM) | 10 µg/mL (≈ 6.91 µM) | 10 µg/mL (≈ 6.91 µM) | >80 µg/mL | >80 µg/mL | >80 µg/mL | >80 µg/mL | >80 µg/mL | >80 µg/mL | 10 µg/mL (≈ 6.91 µM) | 10 µg/mL (≈ 6.91 µM) | MIC [21]: 10 µg/mL (≈ 6.91 µM); MIC [22]: 10 µg/mL (≈ 6.91 µM); MIC [23]: 10 µg/mL (≈ 6.91 µM); MIC [24]: >80 µg/mL; MIC [25]: >80 µg/mL; percent hRBC hemolysis ([26]; peptide 25 μg ml^–1): 91.8%; MIC against A. baumannii [28]: 5–10 μg ml^–1 |
